Tests used:
[1] = Cytotoxicity against HEK293T cells assessed as reduction in cell viability after 48 hrs by CellTiter 96 aqueous one solution assay; format: cell-based, HEK-293T; details: human
[2] = tested on: Human immunodeficiency virus 1; assay: Selectivity ratio of IC50 for HIV1 reverse transcriptase Y181C mutant in HIV1 infected HEK293T cells to IC50 for wild-type HIV1 reverse transcriptase in HIV1 infected HEK293T cells
[3] = tested on: Human immunodeficiency virus 1; assay: Selectivity ratio of IC50 for HIV1 reverse transcriptase K103N mutant in HIV1 infected HEK293T cells to IC50 for wild-type HIV1 reverse transcriptase in HIV1 infected HEK293T cells
[4] = tested on: Human immunodeficiency virus 1; assay: Selectivity ratio of IC50 for HIV1 reverse transcriptase V106M mutant in HIV1 infected HEK293T cells to IC50 for wild-type HIV1 reverse transcriptase in HIV1 infected HEK293T cells

Row | Compound | CC50 at 48 h [1] [µM] | other results
1 | CCn1c(=O)[nH]c2cccc(Oc3ccccc3)c21 | 55 | –
2 | CCC(c1ccccc1)n1c(=O)[nH]c2ccc(Cl)cc21 (racemic) | 55 | Ratio IC50 [2]: > 10; Ratio IC50 [3]: > 10
3 | CCn1c(=O)[nH]c2cccc(Oc3cc(C)cc(C)c3)c21 | 7.16 | –
4 | CCn1c(=O)[nH]c2cccc(Oc3ccnc(C#N)c3)c21 | > 100 | –
5 | CC1(C)OC(=O)Nc2cccc(Oc3cc(Cl)cc(C#N)c3)c21 | 82.7 | –
6 | CCn1c(=O)[nH]c2cccc(Oc3cc(C#N)ccn3)c21 | > 100 | –
7 | CCn1c(=O)[nH]c2cccc(Oc3cc(C#N)cc(C#N)c3)c21 | 96.6 | –
8 | Cc1ccnc2c1NC(=O)c1cccnc1N2C1CC1 [NEVIRAPINE] | 92.7 | –
9 | Cn1c(=O)[nH]c2cccc(Oc3cc(Cl)cc(C#N)c3)c21 | 53.4 | Ratio IC50 [4]: > 10
10 | CCn1c(=O)[nH]c2cccc(Oc3cccc4ccccc34)c21 | 31.3 | –
11 | CCn1c(=O)[nH]c2cccc(Oc3cc(C#N)cc(/C=C/C#N)c3)c21 | 9.7 | –
12 | CCCn1c(=O)[nH]c2cccc(Oc3cc(Cl)cc(C#N)c3)c21 | 24.8 | –
13 | CCn1c(=O)[nH]c2cccc(Oc3ccnc(Cl)c3)c21 | 95.1 | –
14 | CCn1c(=O)[nH]c2cccc(Oc3cc(Cl)cc(C#N)c3)c21 | 24.1 | Ratio IC50 [4]: > 10
